≈ marks a conversion by molar mass, not a printed value. Counter-ions that a name gives are not always drawn. Like-named read-outs stand apart in the source and are kept apart here.
Legend:
[1] = Hygroscopicity, weight gain in 1 week at relative humidity; assay type: physicochemical; settings: solid state
[2] = 1 min
physchem = settings: water, thermodynamic from solid, Total Solubility
[3] = 0.05 M phosphate buffer; for Potency Found (%) At pH 2.5 / Potency Found (%) At pH 7.0: 0.5 mg/mL, ambient

Row | Structure (SMILES) | Hygroscopicity-% weight gain in 1 week ([1]; 56% RH) [%] | Hygroscopicity-% weight gain in 1 week ([1]; 98% RH) [%] | Total Solubility [2] [mg/mL] | solubility at 1 min (physchem) [mg/mL] | solubility at 1 min (physchem; decitabine or azacitidine free base equivalents) [mg/mL] | solution stability compared with the free base ([3]; pH 7.0 and 2.5) | Potency Found (%) At pH 2.5 ([3]; t = 0.5 hr) [%] | Potency Found (%) At pH 7.0 ([3]; t = 0.5 hr) [%] | Potency Found (%) At pH 2.5 ([3]; t = 24 hr) [%] | Potency Found (%) At pH 7.0 ([3]; t = 24 hr) [%]
1 | Nc1ncn([C@@H]2O[C@H](CO)C(O)C2O)c(=O)n1 (some centres unmarked) [Compound 19, azacitidine mesylate] | 6.05 | 38.11 | 205 | 205 | 137 | slightly less than the free azacitidine base | 64.56 | 77.47 | 49.94 | 65.79
2 | Nc1ncn([C@@H]2O[C@H](CO)[C@@H](O)[C@H]2O)c(=O)n1 [Compound 2, 5-azacytidine, reference compound] | 1.74 | 5.61 | 14 | 14 (≈ 57.3 mM) |  |  | 73.62 | 86.74 |  | 79.43

Source: patent publication US20060074046A1, “Oral administration of decitabine salt” (priority 2004, published 2006)
